Columns and labels:
[1] = system: blackgrass; assay: Test Example 4: herbicidal effect by soil treatment (Table 19, symbol J); assay type: in vivo, blackgrass (Alopecurus myosuroides); conditions: amount of applied herbicide 320 g/ha
How it was run: (§1)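 Herbicidal effect was rated 3 weeks after treatment, using the scoring criteria of an earlier test. The compound, formulated as an emulsion and diluted in water to a set herbicide amount, had been sprayed uniformly on soil over freshly sown seeds. Growth took place in a greenhouse at 25° C. to 30° C.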

[2] = system: redroot pigweed; assay: Test Example 4: herbicidal effect by soil treatment (Table 19, symbol N); assay type: in vivo, redroot pigweed (Amaranthus retroflexus); conditions: amount of applied herbicide 320 g/ha
How it was run: as §1

[3] = system: wild oat; assay: Test Example 5: herbicidal effect by foliage application, plastic box (Table 20, symbol I); assay type: in vivo, wild oat (Avena fatua); conditions: amount of applied herbicide 320 g/ha; foliage application after 14-day growth; evaluated three weeks after application
How it was run: (§2)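 Foliar spray test: emulsion formulation diluted in water to a set application rate, sprayed onto 14-day-old plants raised in diluvial soil at 25° C to 30° C under glass. Both herbicidal effect and crop effect rated visually three weeks later.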

[4] = system: Italian ryegrass; assay: Test Example 5: herbicidal effect by foliage application, plastic box (Table 20, symbol K); assay type: in vivo, Italian ryegrass (Lolium multiflorum); conditions: amount of applied herbicide 320 g/ha; foliage application after 14-day growth; evaluated three weeks after application
How it was run: as §2

[5] = system: Italian ryegrass; assay: Test Example 4: herbicidal effect by soil treatment (Table 19, symbol K); assay type: in vivo, Italian ryegrass (Lolium multiflorum); conditions: amount of applied herbicide 320 g/ha
How it was run: as §1

[6] = system: lambsquarters; assay: Test Example 5: herbicidal effect by foliage application, plastic box (Table 20, symbol O); assay type: in vivo, lambsquarters (Chenopodium album); conditions: amount of applied herbicide 320 g/ha; foliage application after 14-day growth; evaluated three weeks after application
How it was run: as §2

[7] = system: windgrass; assay: Test Example 4: herbicidal effect by soil treatment (Table 19, symbol L); assay type: in vivo, windgrass (Apera spica-venti); conditions: amount of applied herbicide 320 g/ha
How it was run: as §1

[8] = system: lambsquarters; assay: Test Example 4: herbicidal effect by soil treatment (Table 19, symbol O); assay type: in vivo, lambsquarters (Chenopodium album); conditions: amount of applied herbicide 320 g/ha
How it was run: as §1

[9] = system: rice flat sedge; assay: Test Example 3: herbicidal effect by foliage application, Wagner pot (Table 18, symbol E); assay type: in vivo, rice flat sedge (Cyperus iria); conditions: 320 g/ha
How it was run: (§3)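 Plants were sown in alluvial soil held under 0.1–0.5 cm standing water and grown 14 days in a greenhouse at 25–30 °C. An emulsifiable formulation, water-diluted to the set dose, was then sprayed onto the foliage, and effects were scored three weeks later using previously defined criteria.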

[10] = system: barnyard grass; assay: Test Example 4: herbicidal effect by soil treatment (Table 19, symbol H); assay type: in vivo, barnyard grass (Echinochloa crus-galli); conditions: amount of applied herbicide 320 g/ha
How it was run: as §1

[11] = system: barnyard grass; assay: Test Example 5: herbicidal effect by foliage application, plastic box (Table 20, symbol H); assay type: in vivo, barnyard grass (Echinochloa crus-galli); conditions: amount of applied herbicide 320 g/ha; foliage application after 14-day growth; evaluated three weeks after application
How it was run: as §2

[12] = system: green foxtail; assay: Test Example 5: herbicidal effect by foliage application, plastic box (Table 20, symbol G); assay type: in vivo, green foxtail (Setaria viridis); conditions: amount of applied herbicide 320 g/ha; foliage application after 14-day growth; evaluated three weeks after application
How it was run: as §2

[13] = system: redroot pigweed; assay: Test Example 5: herbicidal effect by foliage application, plastic box (Table 20, symbol N); assay type: in vivo, redroot pigweed (Amaranthus retroflexus); conditions: amount of applied herbicide 320 g/ha; foliage application after 14-day growth; evaluated three weeks after application
How it was run: as §2

[14] = system: persian speedwell; assay: Test Example 4: herbicidal effect by soil treatment (Table 19, symbol R); assay type: in vivo, Persian speedwell (Veronica persica); conditions: amount of applied herbicide 320 g/ha
How it was run: as §1

[15] = system: green foxtail; assay: Test Example 4: herbicidal effect by soil treatment (Table 19, symbol G); assay type: in vivo, green foxtail (Setaria viridis); conditions: amount of applied herbicide 320 g/ha
How it was run: as §1

[16] = system: blackgrass; assay: Test Example 5: herbicidal effect by foliage application, plastic box (Table 20, symbol J); assay type: in vivo, blackgrass (Alopecurus myosuroides); conditions: amount of applied herbicide 320 g/ha; foliage application after 14-day growth; evaluated three weeks after application
How it was run: as §2

[17] = system: southern crabgrass; assay: Test Example 5: herbicidal effect by foliage application, plastic box (Table 20, symbol F); assay type: in vivo, southern crabgrass (Digitaria ciliaris); conditions: amount of applied herbicide 320 g/ha; foliage application after 14-day growth; evaluated three weeks after application
How it was run: as §2

[18] = system: Chinese sprangletop; assay: Test Example 3: herbicidal effect by foliage application, Wagner pot (Table 18, symbol D); assay type: in vivo, chinese sprangletop (Leptochloa chinensis); conditions: 320 g/ha
How it was run: as §3

[19] = system: velvetleaf; assay: Test Example 5: herbicidal effect by foliage application, plastic box (Table 20, symbol M); assay type: in vivo, velvetleaf (Abutilon theophrasti); conditions: amount of applied herbicide 320 g/ha; foliage application after 14-day growth; evaluated three weeks after application
How it was run: as §2

[20] = system: barnyard grass; assay: Test Example 3: herbicidal effect by foliage application, Wagner pot (Table 18, symbol H); assay type: in vivo, barnyard grass (Echinochloa crus-galli); conditions: 320 g/ha
How it was run: as §3

[21] = system: southern crabgrass; assay: Test Example 4: herbicidal effect by soil treatment (Table 19, symbol F); assay type: in vivo, southern crabgrass (Digitaria ciliaris); conditions: amount of applied herbicide 320 g/ha
How it was run: as §1

[22] = system: wild oat; assay: Test Example 4: herbicidal effect by soil treatment (Table 19, symbol I); assay type: in vivo, wild oat (Avena fatua); conditions: amount of applied herbicide 320 g/ha
How it was run: as §1

[23] = system: persian speedwell; assay: Test Example 5: herbicidal effect by foliage application, plastic box (Table 20, symbol R); assay type: in vivo, Persian speedwell (Veronica persica); conditions: amount of applied herbicide 320 g/ha; foliage application after 14-day growth; evaluated three weeks after application
How it was run: as §2

[24] = system: chickweed; assay: Test Example 4: herbicidal effect by soil treatment (Table 19, symbol P); assay type: in vivo, common chickweed (Stellaria media); conditions: amount of applied herbicide 320 g/ha
How it was run: as §1

[25] = system: velvetleaf; assay: Test Example 4: herbicidal effect by soil treatment (Table 19, symbol M); assay type: in vivo, velvetleaf (Abutilon theophrasti); conditions: amount of applied herbicide 320 g/ha
How it was run: as §1

[26] = system: windgrass; assay: Test Example 5: herbicidal effect by foliage application, plastic box (Table 20, symbol L); assay type: in vivo, windgrass (Apera spica-venti); conditions: amount of applied herbicide 320 g/ha; foliage application after 14-day growth; evaluated three weeks after application
How it was run: as §2

[27] = system: chickweed; assay: Test Example 5: herbicidal effect by foliage application, plastic box (Table 20, symbol P); assay type: in vivo, common chickweed (Stellaria media); conditions: amount of applied herbicide 320 g/ha; foliage application after 14-day growth; evaluated three weeks after application
How it was run: as §2

SMILES: Cc1ccc(-c2sc3cc(F)c(F)cc3c2-c2c(O)c(C)nn(C)c2=O)cc1 [5-003]
- J: blackgrass, herbicidal effect grade [1]: 0 (Herbicidal rate of 5% or less (almost no effect))
- N: redroot pigweed, herbicidal effect grade [2]: 3 (Herbicidal rate of 40% or more and less than 70%)
- Herbicidal effect by foliage application, I: wild oat [3]: 0 (Herbicidal rate of 5% or less (almost no effect))
- Herbicidal effect by foliage application, K: Italian ryegrass [4]: 2 (Herbicidal rate of 20% or more and less than 40%)
- K: Italian ryegrass, herbicidal effect grade [5]: 0 (Herbicidal rate of 5% or less (almost no effect))
- Herbicidal effect by foliage application, O: lambsquarters [6]: 5 (Herbicidal rate of 90% or more (almost completely withered))
- L: windgrass, herbicidal effect grade [7]: 0 (Herbicidal rate of 5% or less (almost no effect))
- O: lambsquarters, herbicidal effect grade [8]: 5 (Herbicidal rate of 90% or more (almost completely withered))
- herbicidal effect on rice flat sedge (E) [9]: 5 (Herbicidal rate of 90% or more (almost completely withered))
- H: barnyard grass, herbicidal effect grade [10]: 3 (Herbicidal rate of 40% or more and less than 70%)
- Herbicidal effect by foliage application, H: barnyard grass [11]: 0 (Herbicidal rate of 5% or less (almost no effect))
- Herbicidal effect by foliage application, G: green foxtail [12]: 2 (Herbicidal rate of 20% or more and less than 40%)
- Herbicidal effect by foliage application, N: redroot pigweed [13]: 5 (Herbicidal rate of 90% or more (almost completely withered))
- R: persian speedwell, herbicidal effect grade [14]: 4 (Herbicidal rate of 70% or more and less than 90%)
- G: green foxtail, herbicidal effect grade [15]: 4 (Herbicidal rate of 70% or more and less than 90%)
- Herbicidal effect by foliage application, J: blackgrass [16]: 0 (Herbicidal rate of 5% or less (almost no effect))
- Herbicidal effect by foliage application, F: southern crabgrass [17]: 0 (Herbicidal rate of 5% or less (almost no effect))
- herbicidal effect on Chinese sprangletop (D) [18]: 3 (Herbicidal rate of 40% or more and less than 70%)
- Herbicidal effect by foliage application, M: velvetleaf [19]: 5 (Herbicidal rate of 90% or more (almost completely withered))
- herbicidal effect on barnyard grass (H) [20]: 3 (Herbicidal rate of 40% or more and less than 70%)
- F: southern crabgrass, herbicidal effect grade [21]: 1 (Herbicidal rate of 5% or more and less than 20%)
- I: wild oat, herbicidal effect grade [22]: 0 (Herbicidal rate of 5% or less (almost no effect))
- Herbicidal effect by foliage application, R: persian speedwell [23]: 5 (Herbicidal rate of 90% or more (almost completely withered))
- P: chickweed, herbicidal effect grade [24]: 4 (Herbicidal rate of 70% or more and less than 90%)
- M: velvetleaf, herbicidal effect grade [25]: 2 (Herbicidal rate of 20% or more and less than 40%)
- Herbicidal effect by foliage application, L: windgrass [26]: 0 (Herbicidal rate of 5% or less (almost no effect))
- Herbicidal effect by foliage application, P: chickweed [27]: 5 (Herbicidal rate of 90% or more (almost completely withered))

Reference: patent US20230085307A1, “PYRIDAZINONE COMPOUND AND HERBICIDE” (NISSAN CHEMICAL CORPORATION, priority 2019, published 2023)
